Source: PubChem BioAssay AID1996
≈ marks a conversion by molar mass, not a printed value.

Settings: buffer; pH 7.4; 200.0 µM

solubility kinetic | SMILES
> 35.7 µg/mL | O=c1[nH]c2ccccc2[n+]([O-])c1-c1ccccc1
20.5 µg/mL (≈ 62.4 µM) | COc1ccc(C(=O)NC(C)CCc2ccccc2)cc1[N+](=O)[O-] (stereo not given)
4.3 µg/mL (≈ 14.7 µM) | Cc1ccnc(NC(=O)CCCc2c[nH]c3ccccc23)c1
> 42.4 µg/mL | NC(=O)C1CCN(C(=O)c2cccc3ccccc23)CC1
1.3 µg/mL (≈ 3.91 µM) | CCOC(=O)/C(C#N)=C1\C(=O)N(Cc2ccccc2)c2ccccc21
10.5 µg/mL (≈ 26.8 µM) | O=C(Nc1ccc(F)cc1F)c1ccc(S(=O)(=O)NCc2ccco2)cc1
> 50.9 µg/mL | COc1ccc(OC)c(CNC(=O)c2coc(=O)c3ccccc23)c1
43.2 µg/mL (≈ 124 µM) | CCN(C(=O)COc1ccc(C(C)=O)cc1)c1cccc2ccccc12
< 0.2 µg/mL | O=C(Nc1ccccc1)Nc1ccc2ccccc2n1
42.7 µg/mL (≈ 115 µM) | Cc1ccc(C(=O)Nc2ccc(CN3CCS(=O)(=O)CC3)cc2)cc1C
12.7 µg/mL (≈ 38.2 µM) | Cc1ccccc1C(=O)c1cccn1CC(=O)NCc1ccccc1
> 81.9 µg/mL | COc1ccc(NC(=O)[C@@H](NS(=O)(=O)c2cccc(Cl)c2)C(C)C)cc1S(=O)(=O)N1CCOCC1
> 51.4 µg/mL | COc1ccc(S(=O)(=O)NCCc2ccccc2)c2cccnc12
> 51.2 µg/mL | COc1ccc2nc(SCC(=O)NCCc3ccccc3)[nH]c2c1
5.2 µg/mL | CC(=O)c1sc(Nc2cccc3ccccc23)nc1C.Cl
0.9 µg/mL (≈ 2.97 µM) | CC(NC(=O)NC(=O)c1cccc(Cl)c1)c1ccccc1 (stereo not given)
> 41.7 µg/mL | Cc1ncc([N+](=O)[O-])n1CC(=O)Nc1ccccc1F
9.4 µg/mL (≈ 20.1 µM) | COc1ccccc1CNC(=O)c1ccc(NC(=O)CC2SC(N3CCCC3)=NC2=O)cc1 (stereo not given)

The next lines start with the compound.

SMILES | solubility kinetic
COc1ccc(-n2c(SCC(=O)N(C)C3CCS(=O)(=O)C3)nc3ccc(O)cc3c2=O)cc1OC (stereo not given) | 35.3 µg/mL (≈ 67.9 µM)
Cc1ccc(OCC(=O)N2C(C)CCCC2C)c([N+](=O)[O-])n1 (stereo not given) | > 46.1 µg/mL
O=C1CNC(=O)/C(=C\c2ccccc2)N1 | > 30.3 µg/mL
CCN(CC)C(=O)COc1ccc2c3c(c(=O)oc2c1)CCCC3 | 48.1 µg/mL (≈ 146 µM)
Cc1ccc(N=C2NC(=O)/C(=C/c3cccn3C)S2)cc1 | 2 µg/mL (≈ 6.73 µM)
O=c1[nH]cnc2c1C(c1ccc(Cl)cc1)c1c(nc[nH]c1=O)O2 | 43.5 µg/mL (≈ 132 µM)
S=C(NCc1ccco1)NCC1CCCO1 (stereo not given) | 34.8 µg/mL (≈ 145 µM)
CCN(CC)c1nc2ccccc2[nH]c1=O | 10.7 µg/mL (≈ 49.2 µM)
O=C(O)/C=C/C(=O)Nc1ccc(S(=O)(=O)N2CCCC2)cc1 | > 48.7 µg/mL
O=C(CN1CCS(=O)(=O)CC1)NNC(=O)C1CCCCC1 | > 47.6 µg/mL
COc1ccc(-c2nnc(SCC(=O)Nc3c(Cl)cc(Cl)cc3C(=O)O)o2)cc1 | > 68.1 µg/mL
Cc1cccc(NC(=O)Nc2cnccn2)c1C | 1.9 µg/mL (≈ 7.84 µM)
CCCCC(=O)Nc1cnc(NC(=O)c2cccs2)cc1C | > 47.6 µg/mL
Cc1cc(NC(=O)c2cc([N+](=O)[O-])cc([N+](=O)[O-])c2)no1 | 9.8 µg/mL (≈ 33.5 µM)
O=C1OC(CCl)CN1Cc1c(Cl)cccc1Cl (stereo not given) | 41.9 µg/mL (≈ 142 µM)
O=C1CC(NC(=O)C(F)(F)F)c2cc3c(cc21)OCO3 (stereo not given) | 42.3 µg/mL (≈ 147 µM)
O=C(CS(=O)(=O)c1ccccc1Cl)N1CCOCC1 | 43.8 µg/mL (≈ 144 µM)
COc1ccccc1Nc1nc(N)nc(CN2CC(C)CC(C)C2)n1 (stereo not given) | 14 µg/mL (≈ 40.9 µM)
Cc1onc(-c2ccccc2Cl)c1C(=O)N1CCC(C(N)=O)CC1 | 50.7 µg/mL (≈ 146 µM)
Cc1cc(=O)c2ccc(C(F)(F)F)cc2[nH]1 | > 34.1 µg/mL
Cc1ccc(S(=O)(=O)N2CCOCC2)cc1NC(=O)COC(=O)CCc1c[nH]c2ccccc12 | 26.4 µg/mL (≈ 54.4 µM)
Cc1nc(NC(=O)c2ccccc2O)sc1C | 10.2 µg/mL (≈ 41.1 µM)
CC(C)CC(=O)Nc1sc2c(c1C(=O)O)CCCCC2 | 42 µg/mL (≈ 142 µM)
CC1(C)Cc2ccccc2-c2[nH]c(=S)[nH]c(=O)c21 | 30.1 µg/mL (≈ 117 µM)
CC(=O)Nc1ccc(S(=O)(=O)NCc2ccc(C)n2C)cc1 | > 48.2 µg/mL
N#Cc1ccc(-c2ccc(OCC3CNC(=O)O3)cc2)cc1 (stereo not given) | 11.3 µg/mL (≈ 38.4 µM)
Cc1cc(NC(=O)C(C)Oc2ccc(C(C)(C)C)cc2)no1 (stereo not given) | 4 µg/mL (≈ 13.2 µM)
